According to patent US8586768B2, “Design, synthesis and functional characterization of rottlerin analogs” (priority 2009, dated 2013):

What was measured:
Assay in all cases: In-vitro kinase profiling, radioisotope screening assay (Signal Chem)
Format in all cases: biochemical
PKCα = target: T1, PKCα (Homo sapiens, UniProt P17252); settings: 5 μM compound, 50 μM ATP, vs vehicle control; negative = inhibition
T1 construct: purchased Signal Chem (Richmond, BC, Canada)
Procedure: (§1) Kinase profiling of PK analogs. The inhibitory effect of lead PK analogs were tested against a panel of 15 protein kinase targets (TABLE 1) to develop better lead candidates without “off” target effects. The selectivity assay was performed at Signal Chem™ (Richmond, BC, Canada) by profiling against protein kinase targets using the “Gold Standard” radioisotope screening assay format. This assay format gave the highest signal noise ratio and allowed the direct measurement of catalytic activity of a protein kinase.
(§2) All assays were performed in triplicate in a 96-well assay format and the % error between triplicates is <10%. Protein kinase assays was performed in the presence of 50 μM ATP at 30° C. for 15 min. The activity of the enzymes in the presence of 5 μM PK analogs was compared to that in the vehicle control and expressed as a percent change in activity relative to that observed in the vehicle control. In TABLE 1, the results are expressed as percent activity change compared to control. The intra-assay variability was determined to be less than 10%. Inhibition of target activity by the compound is shown by a negative value, while activation of target activity is shown by positive value, with values >10% considered to be highly significant.

ASK1 = target: T2, ASK1 (Homo sapiens, UniProt Q99683); settings: 5 μM compound, 50 μM ATP, vs vehicle control; negative = inhibition
T2 construct: purchased Signal Chem (Richmond, BC, Canada)
T2 sequence (Q99683 1-1374): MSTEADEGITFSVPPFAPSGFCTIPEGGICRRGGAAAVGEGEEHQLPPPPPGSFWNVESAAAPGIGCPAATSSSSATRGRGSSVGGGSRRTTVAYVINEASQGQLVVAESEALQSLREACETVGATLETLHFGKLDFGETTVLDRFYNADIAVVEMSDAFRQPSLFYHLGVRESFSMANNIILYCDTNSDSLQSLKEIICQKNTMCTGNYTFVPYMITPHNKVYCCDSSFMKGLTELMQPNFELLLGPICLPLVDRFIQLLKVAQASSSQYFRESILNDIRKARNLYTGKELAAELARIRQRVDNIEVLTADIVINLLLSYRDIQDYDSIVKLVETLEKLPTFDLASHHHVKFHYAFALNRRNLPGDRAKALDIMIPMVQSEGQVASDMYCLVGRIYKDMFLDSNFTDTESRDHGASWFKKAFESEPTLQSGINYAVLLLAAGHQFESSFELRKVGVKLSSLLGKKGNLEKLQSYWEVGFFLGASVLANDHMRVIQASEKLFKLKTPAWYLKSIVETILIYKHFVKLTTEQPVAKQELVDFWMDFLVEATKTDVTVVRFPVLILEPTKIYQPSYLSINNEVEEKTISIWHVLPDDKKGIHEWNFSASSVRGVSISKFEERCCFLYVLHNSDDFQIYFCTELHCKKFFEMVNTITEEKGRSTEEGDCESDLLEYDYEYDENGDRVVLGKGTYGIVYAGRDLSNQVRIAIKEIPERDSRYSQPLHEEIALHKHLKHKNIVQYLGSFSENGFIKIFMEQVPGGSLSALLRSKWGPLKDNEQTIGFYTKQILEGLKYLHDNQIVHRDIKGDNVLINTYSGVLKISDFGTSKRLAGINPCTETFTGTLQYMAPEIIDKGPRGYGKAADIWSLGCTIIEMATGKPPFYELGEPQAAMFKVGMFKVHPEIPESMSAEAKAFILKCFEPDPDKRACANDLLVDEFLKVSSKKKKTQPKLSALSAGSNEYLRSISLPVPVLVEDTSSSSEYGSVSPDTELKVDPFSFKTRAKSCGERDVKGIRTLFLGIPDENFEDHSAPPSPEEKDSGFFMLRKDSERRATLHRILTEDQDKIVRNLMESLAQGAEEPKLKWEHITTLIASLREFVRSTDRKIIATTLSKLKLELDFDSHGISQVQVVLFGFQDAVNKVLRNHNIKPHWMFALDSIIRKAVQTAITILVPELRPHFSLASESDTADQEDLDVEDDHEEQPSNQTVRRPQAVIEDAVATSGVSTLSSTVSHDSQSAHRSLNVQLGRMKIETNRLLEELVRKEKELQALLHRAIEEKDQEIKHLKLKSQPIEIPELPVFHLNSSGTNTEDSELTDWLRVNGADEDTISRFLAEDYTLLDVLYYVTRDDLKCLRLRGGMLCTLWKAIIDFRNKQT
Procedure: as §1, §2

ERKI = target: T3, ERKI (Homo sapiens, UniProt P27361); settings: 5 μM compound, 50 μM ATP, vs vehicle control; negative = inhibition
T3 construct: purchased Signal Chem (Richmond, BC, Canada)
Procedure: as §1, §2

PKCη = target: T4, PKCη (Homo sapiens, UniProt P24723); settings: 5 μM compound, 50 μM ATP, vs vehicle control; negative = inhibition
T4 construct: purchased Signal Chem (Richmond, BC, Canada)
Procedure: as §1, §2

JNK3 = target: T5, JNK3 (Homo sapiens, UniProt P53779); settings: for % activity change: 5 μM compound, 50 μM ATP, vs vehicle control, negative = inhibition; for inhibited by % compared to control: 5 μM concentration, given as positive inhibition
T5 construct: purchased Signal Chem (Richmond, BC, Canada)
Procedure: as §1, §2

CamK2a = target: T6, CamK2a (Homo sapiens, UniProt Q9UQM7); settings: 5 μM compound, 50 μM ATP, vs vehicle control; negative = inhibition
T6 construct: purchased Signal Chem (Richmond, BC, Canada)
Procedure: as §1, §2

PKCμ = target: T7, PKCμ (Homo sapiens, UniProt Q15139); settings: 5 μM compound, 50 μM ATP, vs vehicle control; negative = inhibition
T7 construct: purchased Signal Chem (Richmond, BC, Canada)
T7 sequence (Q15139 1-912): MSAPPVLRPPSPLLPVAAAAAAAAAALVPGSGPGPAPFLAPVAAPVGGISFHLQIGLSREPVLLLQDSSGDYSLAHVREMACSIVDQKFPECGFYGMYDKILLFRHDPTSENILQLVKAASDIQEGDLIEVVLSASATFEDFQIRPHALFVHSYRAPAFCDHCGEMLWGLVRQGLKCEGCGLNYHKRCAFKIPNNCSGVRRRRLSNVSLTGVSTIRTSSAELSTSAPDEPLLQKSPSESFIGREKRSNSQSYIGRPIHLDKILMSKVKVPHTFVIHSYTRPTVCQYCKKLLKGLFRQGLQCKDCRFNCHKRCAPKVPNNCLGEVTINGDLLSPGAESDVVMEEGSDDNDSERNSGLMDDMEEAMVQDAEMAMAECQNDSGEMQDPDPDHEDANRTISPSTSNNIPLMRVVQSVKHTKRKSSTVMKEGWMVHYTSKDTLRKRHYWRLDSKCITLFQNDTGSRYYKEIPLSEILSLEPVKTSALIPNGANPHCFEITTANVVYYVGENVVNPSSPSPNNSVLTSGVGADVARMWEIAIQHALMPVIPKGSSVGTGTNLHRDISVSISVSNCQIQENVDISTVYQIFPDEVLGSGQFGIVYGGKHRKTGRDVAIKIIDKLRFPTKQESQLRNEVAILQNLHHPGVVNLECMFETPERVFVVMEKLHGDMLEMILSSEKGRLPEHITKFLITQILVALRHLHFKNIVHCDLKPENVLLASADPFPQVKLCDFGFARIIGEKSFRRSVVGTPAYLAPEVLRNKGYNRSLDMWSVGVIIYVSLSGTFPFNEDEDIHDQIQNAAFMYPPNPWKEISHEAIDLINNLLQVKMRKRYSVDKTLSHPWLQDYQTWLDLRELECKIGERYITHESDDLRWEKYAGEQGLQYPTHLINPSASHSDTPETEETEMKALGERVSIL
Procedure: as §1, §2

T4 sequence (P24723 whole entry): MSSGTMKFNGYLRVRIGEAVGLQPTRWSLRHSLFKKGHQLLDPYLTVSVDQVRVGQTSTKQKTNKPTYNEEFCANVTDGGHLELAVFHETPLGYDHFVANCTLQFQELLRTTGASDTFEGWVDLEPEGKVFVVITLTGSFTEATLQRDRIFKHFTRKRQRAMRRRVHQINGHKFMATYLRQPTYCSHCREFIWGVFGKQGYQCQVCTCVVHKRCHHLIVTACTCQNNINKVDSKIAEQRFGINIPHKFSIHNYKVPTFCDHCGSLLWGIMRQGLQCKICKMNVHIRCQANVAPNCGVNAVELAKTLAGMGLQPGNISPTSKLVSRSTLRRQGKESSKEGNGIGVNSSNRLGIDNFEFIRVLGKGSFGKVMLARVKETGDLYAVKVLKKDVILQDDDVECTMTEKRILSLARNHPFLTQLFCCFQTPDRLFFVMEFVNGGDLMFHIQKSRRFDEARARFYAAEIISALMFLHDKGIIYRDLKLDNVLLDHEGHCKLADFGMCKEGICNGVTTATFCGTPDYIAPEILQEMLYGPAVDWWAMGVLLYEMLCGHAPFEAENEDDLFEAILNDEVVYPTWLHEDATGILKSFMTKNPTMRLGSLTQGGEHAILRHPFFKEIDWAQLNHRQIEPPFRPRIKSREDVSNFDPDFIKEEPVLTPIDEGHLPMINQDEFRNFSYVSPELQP
T3 sequence (P27361 whole entry): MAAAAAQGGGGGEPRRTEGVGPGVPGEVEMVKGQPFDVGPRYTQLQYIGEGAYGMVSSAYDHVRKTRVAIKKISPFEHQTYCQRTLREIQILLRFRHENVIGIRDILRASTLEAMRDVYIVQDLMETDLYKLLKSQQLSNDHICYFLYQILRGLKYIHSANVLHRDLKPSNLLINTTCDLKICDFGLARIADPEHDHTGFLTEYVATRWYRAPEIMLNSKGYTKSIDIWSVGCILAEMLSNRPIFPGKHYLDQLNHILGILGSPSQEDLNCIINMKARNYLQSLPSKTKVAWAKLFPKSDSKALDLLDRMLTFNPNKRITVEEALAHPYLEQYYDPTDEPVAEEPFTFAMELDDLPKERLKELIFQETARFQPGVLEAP
T5 sequence (P53779 whole entry): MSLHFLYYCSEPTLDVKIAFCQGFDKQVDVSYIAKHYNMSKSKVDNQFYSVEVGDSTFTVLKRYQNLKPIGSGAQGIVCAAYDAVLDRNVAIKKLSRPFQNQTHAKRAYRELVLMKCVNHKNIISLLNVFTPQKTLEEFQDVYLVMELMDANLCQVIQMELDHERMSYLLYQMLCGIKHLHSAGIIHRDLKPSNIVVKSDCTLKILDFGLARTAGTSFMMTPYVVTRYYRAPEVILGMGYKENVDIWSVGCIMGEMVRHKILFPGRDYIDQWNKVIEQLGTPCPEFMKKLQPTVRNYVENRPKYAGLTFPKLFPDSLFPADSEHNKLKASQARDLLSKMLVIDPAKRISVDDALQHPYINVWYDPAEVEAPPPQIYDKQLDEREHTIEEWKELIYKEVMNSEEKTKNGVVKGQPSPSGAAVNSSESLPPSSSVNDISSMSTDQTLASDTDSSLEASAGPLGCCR
T6 sequence (Q9UQM7 whole entry): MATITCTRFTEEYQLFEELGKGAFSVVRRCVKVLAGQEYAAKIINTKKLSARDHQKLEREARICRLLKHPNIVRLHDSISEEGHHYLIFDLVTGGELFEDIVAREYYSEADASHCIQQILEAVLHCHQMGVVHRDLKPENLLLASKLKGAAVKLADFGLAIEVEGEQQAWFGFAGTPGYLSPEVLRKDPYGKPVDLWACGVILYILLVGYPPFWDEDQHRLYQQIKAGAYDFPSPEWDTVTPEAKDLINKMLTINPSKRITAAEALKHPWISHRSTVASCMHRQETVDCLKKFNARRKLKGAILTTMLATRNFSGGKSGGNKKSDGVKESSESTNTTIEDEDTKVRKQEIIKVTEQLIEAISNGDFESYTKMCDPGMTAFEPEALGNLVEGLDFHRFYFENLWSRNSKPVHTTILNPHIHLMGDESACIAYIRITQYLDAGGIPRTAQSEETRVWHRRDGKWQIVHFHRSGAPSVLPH

Structure (SMILES)	% activity change (PKCα)	% activity change (ASK1)	% activity change (ERKI)	% activity change (PKCη)	% activity change (JNK3)	inhibited by % compared to control (JNK3)	% activity change (CamK2a)	% activity change (PKCμ)
Oc1cc(O)c(Cc2c(O)cc(O)cc2O)c(O)c1 [PK103]	−1%	0%	0%	7%	−12%	12%	6%	6%
CC(=O)c1c(O)c(C)c(O)c(Cc2c(O)c3c(c4c2OC(c2ccccc2)CC4=O)OC(C)(C)C=C3)c1O (stereo not drawn) [PK202]	9%	4%	4%	15%	−12%	12%	6%	6%
CC1(C)C=Cc2c(O)cc(O)c(C(=O)/C=C/c3ccccc3)c2O1 [PK302]	13%	0%	3%	19%	−10%		5%	2%
CC(=O)c1c(O)c(C)c(O)c(Cc2c(O)c3c(c(C(=O)/C=C/c4ccccc4)c2O)OC(C)(C)C=C3)c1O [Rottlerin, (E)-1-[6-[(3-acetyl-2,4,6-trihydroxy-5-methylphenyl)methyl]-5,7-dihydroxy-2,2-dimethylchromen-8-yl]-3-phenylprop-2-en-1-one]	−7%	2%	3%	12%	7%		7%	−5%
